The source of these data is paper PMC7998658, “Phloridzin Acts as an Inhibitor of Protein-Tyrosine Phosphatase MEG2 Relevant to Insulin Resistance” (Molecules, 2021).

The target in series [1] is T1, PTP-MEG2 (megakaryocyte protein tyrosine phosphatase 2, PTPN9) (Homo sapiens, UniProt P43378).
T1 sequence (P43378 1-593): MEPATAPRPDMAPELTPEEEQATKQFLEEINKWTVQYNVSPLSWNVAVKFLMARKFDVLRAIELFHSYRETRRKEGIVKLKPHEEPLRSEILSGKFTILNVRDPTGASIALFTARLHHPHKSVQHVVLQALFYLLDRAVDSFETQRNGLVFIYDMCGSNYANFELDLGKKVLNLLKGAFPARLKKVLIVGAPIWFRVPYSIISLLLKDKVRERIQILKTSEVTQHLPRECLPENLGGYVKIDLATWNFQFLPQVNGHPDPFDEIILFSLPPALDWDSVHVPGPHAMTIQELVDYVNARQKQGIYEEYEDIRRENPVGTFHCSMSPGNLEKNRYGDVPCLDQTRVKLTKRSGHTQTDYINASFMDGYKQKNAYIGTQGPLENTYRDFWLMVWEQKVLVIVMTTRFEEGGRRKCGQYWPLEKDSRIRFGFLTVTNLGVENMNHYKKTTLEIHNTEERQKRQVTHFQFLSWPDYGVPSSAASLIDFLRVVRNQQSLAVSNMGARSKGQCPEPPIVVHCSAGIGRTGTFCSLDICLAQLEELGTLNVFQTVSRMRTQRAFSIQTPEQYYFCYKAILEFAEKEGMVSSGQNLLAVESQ
Put plainly: SPR on immobilized purified PTP-MEG2; also DiFMUP enzyme inhibition, IC50 =[…], slow-binding.

Substrate in series [2]: Cc1cc(=O)oc2c(F)c(OP(=O)(O)O)c(F)cc12
Put plainly: fluorogenic substrate hydrolysis by purified enzyme; Km from Lineweaver-Burk plots. The format is biochemical, Homo sapiens. The protocol:
fluorogenic substrate hydrolysis by purified enzyme; Km from Lineweaver-Burk plots on PTP-MEG2 (megakaryocyte protein tyrosine phosphatase 2, PTPN9) | kinetic constants of PTP-MEG2 were determined using DiFMUP as a fluorogenic PTP substrate

A word on the Kd: it is the equilibrium constant for the complex coming apart. Lower therefore signals higher affinity. `O=C(CCc1ccc(O)cc1)c1c(O)cc(O)cc1O[C@@H]1O[C@H](CO)[C@@H](O)[C@H](O)[C@H]1O` [phloridzin]: in series [1], the Kd turned out to be 4.66 µM.

B1: PTP-MEG2 (megakaryocyte protein tyrosine phosphatase 2, PTPN9) (Homo sapiens) (protein)
chain: T1 sequence (P43378 1-593)
Broadly, the Km is the substrate concentration at which the rate is half of its maximum. Take B1: in series [2], the Km is given as 163.1 µM.
